According to publication PMC7815396, “Hypoglycemic Effect of Calea urticifolia (Mill.) DC” (Evidence-based Complementary and Alternative Medicine : eCAM, 2021):

How the values were obtained:
[1] = biological target: T1, alpha-glucosidases from rat intestine; test: p-nitrophenol release at […] nm; assay type: biochemical; conditions: 2 mM p-nitrophenyl-alpha-D-glucopyranoside; 0.1 M phosphate pH 6.8; crude intestinal extract
T1 construct: gene Si; crude rat intestinal extract (Sigma I1630); enzymes not separated

[2] = biological target: T2, alpha-glucosidases from Saccharomyces cerevisiae; test: p-nitrophenol release at […] nm; assay type: biochemical; conditions: 2 mM p-nitrophenyl-alpha-D-glucopyranoside; 0.1 M phosphate pH 6.8
T2 construct: gene MAL12; commercial yeast enzyme (Sigma G5003), native

In the case of `C[C@H]1O[C@H](O[C@H]2[C@H](O)[C@@H](O)[C@@H](O[C@H]3[C@H](O)[C@@H](O)C(O)O[C@@H]3CO)O[C@@H]2CO)[C@H](O)[C@@H](O)[C@@H]1N[C@H]1C=C(CO)[C@@H](O)[C@H](O)[C@H]1O` (some centres unmarked) [Acarbose], the “Rat intestine / α-Glucosidase enzymes / IC50” value [1] is reported as 18.6 µg/mL and the “S. cerevisiae / α-Glucosidase enzymes / IC50” value [2] is reported as 231.9 µg/mL.
